We go through 21 compounds from ChEMBL document CHEMBL2417512, “Spirolactam-based acetyl-CoA carboxylase inhibitors: toward improved metabolic stability of a chromanone lead structure” (J Med Chem, 2013).

Series [1] is described as follows: Hepatic clearance in human liver microsomes. The format is ADME, Microsome. As to conditions: read-out: CLH. A general note: Microsomes from liver hold many membrane-bound enzymes, among them those of drug oxidation.
Series [2] is described as follows: Lipophilicity, log D of the compound. As to conditions: octanol/water. The format is physicochemical.
A short description of series [3]: Thermodynamic solubility of the compound at pH 1.2. It is filed as physicochemical. The conditions noted are these: buffer, read-out: Therm_solubility.
The nature of series [4]: Solubility of the compound at pH 6.5. It is filed as physicochemical. As to conditions: buffer.
Series [5] can be described thus: Systemic clearance in rat at 1 mg/kg, iv. The conditions noted are these: in vivo. It is filed as ADME, organism-based. On the set-up: dose 1 mg/kg, route intravenous.
Series [6] in a line: AUC (last) in rat at 5 mg/kg, po. Also noted: time 0 - last, dose 5 mg/kg, route oral. It is filed as ADME, organism-based. The conditions noted are these: plasma.
Series [7] can be described thus: Oral bioavailability in rat at 5 mg/kg. As to conditions: in vivo. The format is ADME, organism-based.
The nature of series [8]: Cmax in rat at 5 mg/kg, po. The format is ADME, organism-based. On the set-up: dose 5 mg/kg, route oral. As to conditions: in vivo.
Series [9] in a line: Volume of distribution in rat at 1 mg/kg, iv. On the set-up: dose 1 mg/kg, route intravenous. It is filed as ADME, organism-based. As to conditions: in vivo.

Values after ≈ are worked out from the molar mass of the structure shown.

In general, logD refers to the decadic logarithm of the distribution of all forms, ionised or not, between an organic phase and buffer at a given pH. A low value points to lower lipophilicity. With `CC(C)(C)n1cc2c(n1)C(=O)NC1(CCN(C(=O)c3ccc4[nH]ncc4c3)CC1)C2`, the microsomal CLint in series [1] is below 8 µL/min/mg. This compound gave a logD in series [2] of 1.

With `CNc1ccc2ccc(C(=O)N3CCC4(CC3)Cc3cn(C(C)(C)C)nc3C(=O)N4)cc2n1`, in [3], the solubility thermodynamic amounted to 4.8 µg/mL (≈ 10.7 µM). For the same compound, in [1], the microsomal CLint stood at 9 µL/min/mg. This compound displayed a logD in series [2] of 1.5.

On to `COc1cc2cc(C(=O)N3CCC4(CC3)Cc3cn(C(C)(C)C)nc3C(=O)N4)ccc2cn1`, for which the microsomal CLint in [1] was below 8 µL/min/mg. For the same compound, the logD in series [2] was 1.6.

As for `CC(C)(C)n1cc2c(n1)C(=O)NC1(CCN(C(=O)c3ccc4[nH]cc(Cl)c4c3)CC1)C2`, the microsomal CLint in series [1] turned out to be 17 µL/min/mg. For the same compound, the logD in series [2] was found to be 2.6.

As for `Cc1n[nH]c2c(C)cc(C(=O)N3CCC4(CC3)Cc3cn(C(C)(C)C)nc3C(=O)N4C)cc12`, the microsomal CLint in series [1] came out at 14 µL/min/mg. In addition, the logD in series [2] was 1.4.

On to `Cc1n[nH]c2c(C)cc(C(=O)N3CCC4(CC3)Cc3cnn(C(C)C)c3C(=O)N4)cc12`, for which the microsomal CLint in series [1] was below 8 µL/min/mg. Also, the logD in series [2] was 1.7.

With `Cc1ccc2c(c1)C(=O)CC1(CCN(C(=O)c3ccc4[nH]ncc4c3)CC1)O2`, the microsomal CLint in series [1] stood at 19 µL/min/mg. In addition, the logD in [2] amounted to 2.5.

`CCCNc1ccc2ccc(C(=O)N3CCC4(CC3)Cc3cn(C(C)(C)C)nc3C(=O)N4)cc2n1`: the microsomal CLint in [1] worked out at 29 µL/min/mg. In [2], this compound gave a logD of 2.1.

Turning to `Cc1n[nH]c2c(C)cc(C(=O)N3CCC4(CC3)Cc3cn(C(C)(C)C)nc3C(=O)N4)cc12`, the microsomal CLint in series [1] is below 8 µL/min/mg. The logD in series [2] came to 1.5.

Regarding `CN(C)c1ccc2ccc(C(=O)N3CCC4(CC3)Cc3cn(C(C)(C)C)nc3C(=O)N4)cc2n1`, in [1], the microsomal CLint came out at 19 µL/min/mg. Also, the logD in series [2] turned out to be 1.9.

Regarding `CC(C)(C)n1cc2c(n1)C(=O)NC1(CCN(C(=O)c3cnc4c(Cl)c[nH]c4c3)CC1)C2`, the microsomal CLint in series [1] was below 8 µL/min/mg. In series [2], this compound registered a logD of 1.4.

`CC(C)(C)n1cc2c(n1)C(=O)NC1(CCN(C(=O)c3ccc4[nH]nc(Cl)c4c3)CC1)C2`: in [1], the microsomal CLint was below 8 µL/min/mg. The same compound gave a logD in series [2] of 1.8.

On to `CC(C)(C)n1cc2c(n1)C(=O)NC1(CCN(C(=O)c3ccc4[nH]nc(C(F)(F)F)c4c3)CC1)C2`, for which, in [1], the microsomal CLint was below 8 µL/min/mg. This compound also had a logD in [2] of 2.5.

For `CCC(C)(C)n1cc2c(n1)C(=O)NC1(CCN(C(=O)c3cc(C)c4[nH]nc(C)c4c3)CC1)C2`, the microsomal CLint in [1] was found to be 35 µL/min/mg. This compound also yielded a logD in series [2] of 1.7.

The term solubility denotes the concentration that dissolves in the medium under given conditions. A high value points to much dissolved substance. One may read the clearance as the rate of elimination divided by the concentration. Low values mean inefficient removal, high ones efficient removal. The AUC(0-t) is exposure summed from dosing to a finite time, without extrapolation to infinity. In general, bioavailability refers to the share of a dose that reaches the circulation, judged against a reference dose that is usually intravenous. A lower bioavailability goes with poor availability. The Cmax is the highest concentration seen after dosing. `COc1nccc2ccc(C(=O)N3CCC4(CC3)Cc3cn(C(C)(C)C)nc3C(=O)N4)cc12`: the concentration in solution in [4] (solubility) came to 0.13 µg/mL (≈ 0.29 µM). In series [5], this compound registered a clearance of 41 mL/min/kg. The compound also came in with an AUC(0-t) in series [6] of 713 ng·h/mL. Further, in series [7], the bioavailability turned out to be 28%. In addition, the microsomal CLint in [1] came to 12 µL/min/mg. In series [2], this compound returned a logD of 2. For the same compound, in series [8], the highest level (Cmax) was 186 ng/mL.

Usually Vd stands for a proportionality between amount in the body and measured concentration, not a real space. High values mean extensive tissue distribution, low ones confinement near the circulation. In turn, `COc1ccc2ccc(C(=O)N3CCC4(CC3)Cc3cn(C(C)(C)C)nc3C(=O)N4)cc2n1` came in with a solubility in series [4] of 0.05 µg/mL (≈ 0.112 µM). Moreover, the solubility thermodynamic in series [3] turned out to be 0.49 µg/mL (≈ 1.09 µM). In series [9], this compound gave a Vd of 1.7 L/kg. In series [5], this compound displayed a clearance of 29 mL/min/kg. In series [6], this compound came in with an AUC(0-t) of 2070 ng·h/mL. Moreover, the bioavailability in series [7] was 71%. For the same compound, in series [1], the microsomal CLint is below 8 µL/min/mg. The same compound came in with a logD in series [2] of 2.2. In [8], this compound returned a peak concentration (Cmax) of 403 ng/mL.

Turning to `CNc1nccc2ccc(C(=O)N3CCC4(CC3)Cc3cn(C(C)(C)C)nc3C(=O)N4)cc12`, the microsomal CLint in [1] worked out at 25 µL/min/mg. The same compound came in with a logD in series [2] of 1.5.

Consider `CC(C)(C)n1cc2c(n1)C(=O)NC1(CCN(C(=O)c3ccc4c(Cl)c[nH]c4c3)CC1)C2`, for which the microsomal CLint in series [1] turned out to be 31 µL/min/mg. Besides, in series [2], the logD came to 3.5.

Turning to `CC(C)(C)n1cc2c(n1)C(=O)CC1(CCN(C(=O)c3ccc4[nH]ncc4c3)CC1)O2`, the microsomal CLint in [1] is below 9 µL/min/mg. In series [2], this compound yielded a logD of 1.4.

Regarding `Cc1n[nH]c2c(C)cc(C(=O)N3CCC4(CC3)Cc3cn(C(C)C)nc3C(=O)N4)cc12`, in series [1], the microsomal CLint was below 8 µL/min/mg. The compound also registered a logD in series [2] of 1.1.

Regarding `Cc1n[nH]c2c(C)cc(C(=O)N3CCC4(CC3)Cc3cnn(C(C)(C)C)c3C(=O)N4)cc12`, the microsomal CLint in series [1] was determined as 17 µL/min/mg. Further, the logD in series [2] amounted to 2.6.
